The source of these data is patent EP0409227A2, “Pyrimidine nucleosides, their preparation and pharmaceutical preparations” (MATTHES, Eckart, Dr., priority 1989, dated 1991).

Where two headings read alike, the source gives them in different places.

The subject of series [1] is MT4 Zellen. Briefly: Cytotoxicity: inhibition of proliferation of MT4 cells. It is filed as cell-based. Here is the method:
Unter dem Aspekt einer möglichen Anwendung der Verbindungen am Menschen wurden ihre antiproliferativen Wirkungen an menschlichen Zellkulturen wie früher beschrieben getestet (E. Matthes et al. Biochem.Biophys.Res.Commun. 153, 825 (1988)). Dabei zeigte sich, daß z.B. 2′,3′-Didesoxy-3-fluor-5-methylcytidin gegenüber der T-Zellinie MT4 eine CD₅₀ von 190 µM aufweist. In einem weiteren Test, in dem eine mögliche Wachstumshemmung koloniebildender Zellen des Knochenmarks der Maus (CFU-GM) untersucht wurde (E. Matthes et al. Biochem.Biophys.Res.Commun. 165, 488 (1989), erwies sich diese Verbindung ebenfalls als kaum proliferationshemmend (CD₅₀ > 500 µM). Die Wirkung weiterer Verbindungen auf die Proliferation von MT4-Zellen ist in Tabelle 3 zusammengefaßt. Tabelle 3

Series [2] has as its target T1, DNA-Polymerase-alpha (Homo sapiens, UniProt P09884).
T1 construct: Die Isolierung der Enzyme und deren Aktivitätsbestimmung erfolgte entsprechend der Methode von Matthes et al; from tissue
T1 sequence (P09884 1-1462): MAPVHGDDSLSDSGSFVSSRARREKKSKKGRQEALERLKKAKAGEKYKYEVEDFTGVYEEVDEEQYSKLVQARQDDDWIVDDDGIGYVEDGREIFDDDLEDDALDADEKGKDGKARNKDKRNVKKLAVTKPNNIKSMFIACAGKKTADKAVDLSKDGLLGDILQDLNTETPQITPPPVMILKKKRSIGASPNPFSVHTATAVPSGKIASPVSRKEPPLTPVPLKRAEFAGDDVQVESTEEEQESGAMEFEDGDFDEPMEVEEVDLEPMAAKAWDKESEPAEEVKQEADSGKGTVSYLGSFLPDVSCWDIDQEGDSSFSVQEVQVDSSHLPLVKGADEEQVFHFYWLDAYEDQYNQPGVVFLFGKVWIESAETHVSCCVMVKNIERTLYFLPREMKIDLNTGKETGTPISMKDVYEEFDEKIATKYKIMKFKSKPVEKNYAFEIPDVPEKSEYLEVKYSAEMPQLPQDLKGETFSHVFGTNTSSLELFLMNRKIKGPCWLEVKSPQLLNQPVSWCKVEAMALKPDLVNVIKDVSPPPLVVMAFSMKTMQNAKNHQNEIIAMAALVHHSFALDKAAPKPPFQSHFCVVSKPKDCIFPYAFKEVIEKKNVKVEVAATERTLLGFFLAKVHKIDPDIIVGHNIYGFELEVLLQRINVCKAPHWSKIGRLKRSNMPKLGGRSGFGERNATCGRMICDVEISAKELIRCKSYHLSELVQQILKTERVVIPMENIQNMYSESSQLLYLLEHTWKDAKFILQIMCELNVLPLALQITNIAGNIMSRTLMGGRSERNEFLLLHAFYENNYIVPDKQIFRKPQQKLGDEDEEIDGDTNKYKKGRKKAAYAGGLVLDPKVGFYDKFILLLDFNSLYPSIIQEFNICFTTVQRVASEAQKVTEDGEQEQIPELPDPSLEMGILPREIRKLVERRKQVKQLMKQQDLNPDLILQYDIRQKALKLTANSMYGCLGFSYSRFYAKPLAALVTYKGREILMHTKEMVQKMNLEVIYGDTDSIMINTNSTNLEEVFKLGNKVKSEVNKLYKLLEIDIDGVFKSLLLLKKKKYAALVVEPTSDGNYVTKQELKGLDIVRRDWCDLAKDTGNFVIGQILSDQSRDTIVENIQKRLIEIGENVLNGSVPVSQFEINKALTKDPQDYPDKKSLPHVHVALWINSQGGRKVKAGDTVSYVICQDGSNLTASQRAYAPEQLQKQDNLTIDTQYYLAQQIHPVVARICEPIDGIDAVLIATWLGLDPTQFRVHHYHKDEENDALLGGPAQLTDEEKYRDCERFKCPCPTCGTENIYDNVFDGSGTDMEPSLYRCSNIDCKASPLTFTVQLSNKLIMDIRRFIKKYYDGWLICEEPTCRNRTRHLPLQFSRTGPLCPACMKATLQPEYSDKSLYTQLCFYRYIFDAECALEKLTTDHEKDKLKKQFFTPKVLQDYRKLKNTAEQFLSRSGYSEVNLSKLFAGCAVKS
Briefly: Effect of modified nucleoside triphosphates on cellular DNA polymerase alpha. In kind it is biochemical. The conditions noted are these: read-out: ID₅₀ (µM) DNA-Polymerase- alpha. The source says:
(§1) Um zu prüfen, inwieweit die beschriebene Wirkung auf die HBV-Polymerase selektiv ist, d.h., die zellulären DNA-Polymerasen von einer Hemmung durch die erfindungsgemäßen Nucleosidtriphosphate ausgenommen sind, wurden die zellulären DNA-Polymerasen-alpha und -beta in die Untersuchungen einbezogen. Die Isolierung der Enzyme und deren Aktivitätsbestimmung erfolgte entsprechend der Methode von Matthes et al. (Biomed.Biochim.Acta 44, K63-K73 (1985)). Die Ergebnisse der Tabelle 2 zeigen, daß die für die Replikation der zellulären DNA zuständige DNA-Polymerase alpha weitgehend unbeeinflußt bleibt. Eine 50 %ige Hemmung dieses Enzyms wird mit Ausnahme auch bei Hemmstoffkonzentrationen >100 µM noch nicht erreicht, so daß die DNA-Polymerase-alpha diesen Verbindungen gegenüber als nahezu resistent anzusehen ist. Für die DNA-Polymerase-beta, die als Reparaturenzym zellulärer DNA-Schäden angesehen wird, liegen die ID₅₀- Werte zwischen 1 und >200 µM. Damit besitzt die beschriebene Verbindung eine hohe Wirkungsspezifität. Tabelle 2

In series [3] the target is T2, HBV-Polymerase (Hepatitis B virus genotype D subtype ayw, UniProt P03156).
T2 construct: Es wurde zunächst die Hemmbarkeit der HBV-assoziierten Polymerase; host or cells: virus-associated endogenous polymerase
T2 sequence (P03156 whole entry): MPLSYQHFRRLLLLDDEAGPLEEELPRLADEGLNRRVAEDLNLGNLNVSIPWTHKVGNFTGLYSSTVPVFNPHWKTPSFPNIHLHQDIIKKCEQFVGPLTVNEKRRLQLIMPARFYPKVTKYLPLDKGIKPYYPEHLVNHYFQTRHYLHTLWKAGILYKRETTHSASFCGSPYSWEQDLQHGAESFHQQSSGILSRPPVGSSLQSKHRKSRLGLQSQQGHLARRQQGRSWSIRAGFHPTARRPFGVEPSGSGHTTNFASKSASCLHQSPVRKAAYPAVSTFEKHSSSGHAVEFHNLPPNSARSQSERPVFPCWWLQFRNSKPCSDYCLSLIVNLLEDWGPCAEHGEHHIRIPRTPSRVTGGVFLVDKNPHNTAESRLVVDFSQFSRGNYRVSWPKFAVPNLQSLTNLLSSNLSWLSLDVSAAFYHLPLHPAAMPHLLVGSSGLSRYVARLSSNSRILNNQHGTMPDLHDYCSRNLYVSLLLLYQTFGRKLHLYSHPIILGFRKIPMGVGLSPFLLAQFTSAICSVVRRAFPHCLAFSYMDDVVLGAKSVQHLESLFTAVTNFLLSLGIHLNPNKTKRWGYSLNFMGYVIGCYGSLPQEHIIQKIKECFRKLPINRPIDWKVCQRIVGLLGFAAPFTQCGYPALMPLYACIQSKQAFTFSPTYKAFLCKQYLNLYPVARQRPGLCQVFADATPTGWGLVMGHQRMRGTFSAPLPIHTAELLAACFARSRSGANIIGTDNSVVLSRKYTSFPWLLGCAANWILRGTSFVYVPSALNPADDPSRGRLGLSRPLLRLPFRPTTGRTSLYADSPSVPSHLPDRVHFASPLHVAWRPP
Briefly: Inhibition of HBV polymerase activity by nucleoside triphosphate analogues (method of Kaplan et al.). It is filed as biochemical. The conditions noted are these: 50 % inhibition of HBV polymerase activity; 3 h incubation at 37 °C; read-out: ID₅₀. The source says: Das Hepatitis B Virus (HBV) besitzt eine zirkuläre, partiell doppelsträngige DNA, welche nach Infektion einer Leberzelle durch eine viruseigene Polymerase repliziert wird. Dieser Vorgang setzt jedoch die Synthese einer RNA durch eine zelluläre RNA-Polymerase voraus. Nur diese RNA-Matrize - im Zusammenhang mit der Replikation auch als Prägenom bezeichnet - kann von der HBV-Polymerase für die Synthese zunächst eines RNA-DNA Hybrids und dann der doppelsträngigen DNA benutzt werden. Damit verfügt die HBV-Polymerase über eine enzymatische Aktivität, die der einer reversen Transcriptase ähnelt (Will et al., J.Virology 61, 904 (1987)). Es wurde zunächst die Hemmbarkeit der HBV-assoziierten Polymerase durch die 5′-Triphosphate der erfindungsgemäßen Verbindungen untersucht. Dazu wurde die von Kaplan et al. (J.Virology 12, 995 (1973)) angegebene Methode zur Bestimmung der HBV-Polymerase benutzt, wobei die zu testenden Triphosphate den Ansätzen in verschiedenen Konzentrationen zugesetzt wurden. Die Hemmung der Enzymreaktion wurde nach 3-stündiger Inkubation bei 37 °C durch Vergleich mit einem Kontrollwert ermittelt und daraus die Konzentration der zugesetzten Analoga bestimmt, die zu einer 50 %igen Hemmung der HBV-Polymerase-Aktivität führt (ID₅₀). Tabelle 1 zeigt die Ergebnisse, wobei insbesondere 2′,3′-Didesoxy-3′-fluor-5-methylcytidin durch einen Wert ID₅₀ von 0,03 µM herausragt und damit zu den stärksten bisher bekannten Hemmstoffen der HBV-Polymerase zu rechnen ist. Tabelle 1

In series [4] the target is T3, DNA-Polymerase-beta (Homo sapiens, UniProt P06746).
T3 construct: Die Isolierung der Enzyme und deren Aktivitätsbestimmung erfolgte entsprechend der Methode von Matthes et al; from tissue
The series is described as follows: Effect of modified nucleoside triphosphates on cellular DNA polymerase beta. It is filed as biochemical. The settings on record: read-out: ID₅₀ (µM) DNA-Polymerase- beta.
From the text: as §1

The molecule `Cc1cn([C@H]2C=C[C@@H](CO)O2)c(=O)nc1N` [2′,3′-Didehydro-2′,3′-didesoxy-5-methylcytidin] registered a CD₅₀ in series [1] (human, 48 h) of 205 µM.
Turning to `Nc1nc2c(ncn2[C@H]2C=C[C@@H](CO)O2)c(=O)[nH]1` [2′,3′-Didehydro-2′,3′-didesoxyguanosin], the CD₅₀ in series [1] (human, 48 h) worked out at 155 µM.
On to `Nc1nc2c(ncn2[C@H]2C[C@H](N)[C@@H](CO)O2)c(=O)[nH]1` [2′,3′-Didesoxy-3′-aminoguanosin], for which, in series [1] (human, 48 h), the CD₅₀ is on record as 210 µM.
For `Cc1cn([C@H]2C[C@H](N=[N+]=[N-])[C@@H](CO)O2)c(=O)nc1N` [2′,3′-Didesoxy-3′-azido-5-methylcytidin], the CD₅₀ in series [1] (human, 48 h) was > 500 µM.
Regarding `Nc1nc2c(ncn2[C@H]2C[C@H](F)[C@@H](CO)O2)c(=O)[nH]1` [2′,3′-Didesoxy-3′-fluorguanosin], the CD₅₀ in series [1] is reported as 250 µM.
As to `Cc1cn([C@H]2CC[C@@H](CO)O2)c(=O)nc1N` [2′,3′-Didesoxy-5-methylcytidin], in series [1] (human, 48 h), the CD₅₀ is given as 110 µM.
With `Cc1cn([C@H]2C[C@H](Cl)[C@@H](COP(=O)(O)OP(=O)(O)OP(=O)(O)O)O2)c(=O)nc1N` [ClMetdCTP, 2′,3′-Didesoxy-3′chlor-5-methylcytidin-5′-triphosphat], the IC50 in series [2] is > 200 µM; in series [3], 9 µM; in series [4], 100 µM.
The like results for `CCc1cn([C@H]2C[C@H](F)[C@@H](COP(=O)(O)OP(=O)(O)OP(=O)(O)O)O2)c(=O)nc1N` [FEtdCTP, 2′,3′-Didesoxy-3′-fluor-5-ethylcytidin-5′-triphosphat] were, in that order, > 200 µM, 0.35 µM and 3 µM.
The like results for `Cc1cn([C@H]2C[C@H](F)[C@@H](COP(=O)(O)OP(=O)(O)OP(=O)(O)O)O2)c(=O)nc1N` [FMetdCTP, 2′,3′-Didesoxy-3′-fluor-5-methylcytidin-5′-triphosphat] were, in that order, > 200 µM, 0.03 µM and 1 µM.
The like results for `Nc1nc2c(ncn2[C@H]2C[C@H](F)[C@@H](COP(=O)(O)OP(=O)(O)OP(=O)(O)O)O2)c(=O)[nH]1` [FdGTP, 2′,3′-Didesoxy-3′-fluorguanosin-5′-triphosphat] were, in that order, > 200 µM, 0.15 µM and 1.8 µM.
`Cc1cn([C@H]2C[C@H](N)[C@@H](COP(=O)(O)OP(=O)(O)OP(=O)(O)O)O2)c(=O)nc1N` [NH₂MetdCTP, 2′,3′-Didesoxy-3′-amino-5-methylcytidin-5′-triphosphat]: the values for the IC50 in series [2], in series [3] and in series [4] were > 200 µM, 26 µM and > 200 µM, respectively.
Consider `Cc1cn([C@H]2C[C@H](N=[N+]=[N-])[C@@H](COP(=O)(O)OP(=O)(O)OP(=O)(O)O)O2)c(=O)nc1N` [N₃MetdCTP, 2′,3′-Didesoxy-3′-azido-5-methylcytidin-5′-triphosphat], for which the values for the IC50 in series [2], in series [3] and in series [4] were > 200 µM, 0.12 µM and > 200 µM, respectively.
Take `Cc1cn([C@H]2CC[C@@H](COP(=O)(O)OP(=O)(O)OP(=O)(O)O)O2)c(=O)nc1N` [ddMetCTP, 2′,3′-Didesoxy-5-methylcytidin-5′-triphosphat]: the figures for the IC50 in series [2], in series [3] and in series [4] were > 200 µM, 8 µM and > 100 µM, respectively.
For `Nc1ncnc2c1ncn2[C@H]1C=C[C@@H](COP(=O)(O)OP(=O)(O)OP(=O)(O)O)O1` [ddeATP, 2′,3′-Didehydro-2′,3′-didesoxyadenosin-5′-triphosphat], the IC50 in series [2] is > 100 µM; in series [3] it was 1.8 µM; in series [4], 4.5 µM.
For `Nc1ccn([C@H]2C=C[C@@H](COP(=O)(O)OP(=O)(O)OP(=O)(O)O)O2)c(=O)n1` [ddeCTP, 2′,3′-Didehydro-2′,3′-didesoxycytidin-5′-triphosphat], in that order: > 200 µM, 2.5 µM and 6 µM.
Regarding `Nc1nc2c(ncn2[C@H]2C=C[C@@H](COP(=O)(O)OP(=O)(O)OP(=O)(O)O)O2)c(=O)[nH]1` [ddeGTP, 2′,3′-Didehydro-2′,3′-didesoxyguanosin-5′-triphosphat], the IC50 was > 150 µM in series [2], 1.6 µM in series [3] and 5 µM in series [4].
The like results for `Cc1cn([C@H]2C=C[C@@H](COP(=O)(O)OP(=O)(O)OP(=O)(O)O)O2)c(=O)nc1N` [ddeMetCTP, 2′,3′-Didehydro-2′,3′-didesoxy-5-methylcytidin-5′-triphosphat] were, in that order, > 200 µM, 0.28 µM and 10 µM.
